In BindingDB's records for patent US12234222 (Zhejiang Hisun Pharmaceutical, 2025):

Experiments:
[1] = target: Vascular endothelial growth factor receptor 2 (Homo sapiens, UniProt P35968)
[2] = target: Proto-oncogene tyrosine-protein kinase receptor Ret (Homo sapiens, UniProt P07949); assay: RET Kinase Assay
Experimental: The experimental steps are as follows:(1) The test compound (the compound of the present disclosure, and compound 164 in WO2018017983A1 as a control) was dissolved in 100% DMSO to a final concentration of 10 mM.(2) 4 μL of the test compound solution prepared in step (1) was dissolved with 46 μL of 100% DMSO, and the solution obtained in this step was numbered as No. 2.(3) No. 2 solution was subjected to subsequent gradient dilution with a dilution factor of 5 times (i.e. 20 μL of 100% DMSO was added to 5 μL of the compound), a total of 9 gradients, numbered 3 to 11.Note: No. 2 was not used for the dilution in step (4).(Unless otherwise specified, the following steps need to be carried out on ice)(4) The buffer provided in the kit (Cisbio, Cat. No. 62TK0PEB) was used to continuously serially dilute the solutions numbered from 3 to 11 with a dilution factor of 20 times (that is, adding 19 μL of buffer to the solutions numbered from 3 to 11). […] After the incubation, the TF-FRET mode of the microplate reader (BMG Labtech, model: FLUOStar Omega) was adopted to measure the fluorescence intensity at an excitation wavelength of 304 nm and emission wavelengths of 615 nm and […] in each well. […]

Sequence of Vascular endothelial growth factor receptor 2 (P35968 whole entry): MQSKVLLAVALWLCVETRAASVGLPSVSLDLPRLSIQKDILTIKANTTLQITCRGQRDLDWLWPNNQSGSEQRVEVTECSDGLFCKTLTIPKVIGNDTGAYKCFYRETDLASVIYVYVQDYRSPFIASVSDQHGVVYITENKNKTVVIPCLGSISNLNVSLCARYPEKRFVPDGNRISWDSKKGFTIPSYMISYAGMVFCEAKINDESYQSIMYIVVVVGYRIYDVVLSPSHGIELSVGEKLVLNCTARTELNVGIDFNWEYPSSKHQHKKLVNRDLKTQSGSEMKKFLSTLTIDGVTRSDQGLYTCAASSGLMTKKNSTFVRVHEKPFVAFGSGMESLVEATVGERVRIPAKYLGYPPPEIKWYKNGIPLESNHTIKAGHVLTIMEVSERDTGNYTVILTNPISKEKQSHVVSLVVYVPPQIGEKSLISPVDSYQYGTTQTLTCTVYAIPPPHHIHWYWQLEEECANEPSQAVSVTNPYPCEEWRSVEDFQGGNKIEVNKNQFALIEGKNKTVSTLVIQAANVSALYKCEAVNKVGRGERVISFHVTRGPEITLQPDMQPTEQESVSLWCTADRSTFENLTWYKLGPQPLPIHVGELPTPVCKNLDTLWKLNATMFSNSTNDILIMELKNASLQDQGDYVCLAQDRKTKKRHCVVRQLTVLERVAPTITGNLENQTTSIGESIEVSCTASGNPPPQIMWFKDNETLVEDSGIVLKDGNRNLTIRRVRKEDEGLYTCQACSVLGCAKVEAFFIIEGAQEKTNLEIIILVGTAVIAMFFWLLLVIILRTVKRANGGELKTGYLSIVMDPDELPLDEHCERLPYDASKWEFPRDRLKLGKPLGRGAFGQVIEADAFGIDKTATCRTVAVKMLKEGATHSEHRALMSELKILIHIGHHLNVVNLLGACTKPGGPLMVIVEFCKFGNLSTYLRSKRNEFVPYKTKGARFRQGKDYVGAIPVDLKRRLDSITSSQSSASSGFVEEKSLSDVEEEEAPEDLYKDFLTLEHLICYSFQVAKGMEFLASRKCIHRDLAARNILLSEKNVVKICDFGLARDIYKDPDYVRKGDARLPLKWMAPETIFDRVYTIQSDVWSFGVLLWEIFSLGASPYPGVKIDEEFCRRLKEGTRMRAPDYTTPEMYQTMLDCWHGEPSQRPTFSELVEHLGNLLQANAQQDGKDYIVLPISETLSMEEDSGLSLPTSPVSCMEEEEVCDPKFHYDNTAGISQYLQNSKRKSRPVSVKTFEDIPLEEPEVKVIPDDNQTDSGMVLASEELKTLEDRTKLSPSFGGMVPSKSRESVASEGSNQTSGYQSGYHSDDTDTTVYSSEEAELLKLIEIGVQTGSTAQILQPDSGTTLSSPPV
Sequence of Proto-oncogene tyrosine-protein kinase receptor Ret (P07949 whole entry): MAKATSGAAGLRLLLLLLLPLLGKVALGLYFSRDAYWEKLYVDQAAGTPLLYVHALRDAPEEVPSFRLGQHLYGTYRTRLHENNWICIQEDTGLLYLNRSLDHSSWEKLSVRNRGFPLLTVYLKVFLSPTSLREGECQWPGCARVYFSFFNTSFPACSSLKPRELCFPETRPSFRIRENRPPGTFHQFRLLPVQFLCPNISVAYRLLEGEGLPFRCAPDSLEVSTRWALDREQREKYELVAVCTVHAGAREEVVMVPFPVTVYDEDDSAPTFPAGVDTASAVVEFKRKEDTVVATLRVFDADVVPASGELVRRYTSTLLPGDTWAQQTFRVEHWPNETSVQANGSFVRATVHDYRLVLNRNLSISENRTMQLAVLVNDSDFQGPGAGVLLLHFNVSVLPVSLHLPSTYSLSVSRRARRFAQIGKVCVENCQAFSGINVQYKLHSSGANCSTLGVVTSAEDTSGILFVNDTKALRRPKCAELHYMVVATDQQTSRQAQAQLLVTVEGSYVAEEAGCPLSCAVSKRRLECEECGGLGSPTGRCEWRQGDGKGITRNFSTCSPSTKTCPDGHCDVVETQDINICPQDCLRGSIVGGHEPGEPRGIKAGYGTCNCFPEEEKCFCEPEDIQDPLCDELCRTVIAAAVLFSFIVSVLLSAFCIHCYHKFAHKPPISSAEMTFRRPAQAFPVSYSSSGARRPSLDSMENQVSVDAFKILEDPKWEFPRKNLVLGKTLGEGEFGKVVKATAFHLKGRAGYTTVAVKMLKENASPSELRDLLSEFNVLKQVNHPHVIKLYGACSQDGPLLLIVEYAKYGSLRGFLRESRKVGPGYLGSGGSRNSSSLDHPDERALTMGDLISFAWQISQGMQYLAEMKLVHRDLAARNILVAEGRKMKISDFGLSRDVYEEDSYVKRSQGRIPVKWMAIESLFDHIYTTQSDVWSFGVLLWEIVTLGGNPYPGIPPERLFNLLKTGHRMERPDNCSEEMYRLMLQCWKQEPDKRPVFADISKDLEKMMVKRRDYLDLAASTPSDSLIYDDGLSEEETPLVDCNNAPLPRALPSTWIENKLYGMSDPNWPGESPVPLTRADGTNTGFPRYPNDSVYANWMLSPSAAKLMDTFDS

Row | SMILES | IC50 [1] [nM] | IC50 [2] [nM]
1 | Cc1cc(Nc2cc(C)[nH]n2)nc(N2CC3CCC(C2)N3C(=O)c2ccc(-n3cc(Cl)cn3)nc2)n1 [US12234222, Compound I-8] | 107 | 1.7
2 | Cc1cc(Nc2ccnc(N3CC4CCC(C3)N4C(=O)c3ccc(-n4cc(F)cn4)nn3)n2)n[nH]1 [US12234222, Compound I-14] | 141 | 3.9
